{"source": "patent US20260335335A1", "about": "“PHARMACEUTICAL FORMULATION COMPRISING A COATED TABLET” (Genentech, Inc., priority 2023, published 2026)", "key": {"[1]": {"test": "Light sensitivity of GDC-0077 (INAVOLISIB)", "assay_type": "physicochemical"}, "[2]": {"tested_on": "mutant PI3Kα", "conditions": "role: inhibitor; relative to non-mutant PI3Kα; cited from earlier work"}, "[3]": {"tested_on": "PI3Kα isoform", "conditions": "role: inhibitor; relative to PI3 KB, PI3K8 and PI3Ky isoforms; cited from earlier work"}}, "note": "Entries after “also recorded” stand apart in the source; their conditions may differ."}
{"smiles": "C[C@H](Nc1ccc2c(c1)OCCn1cc(N3C(=O)OC[C@H]3C(F)F)nc1-2)C(N)=O", "note": "[GDC-0077 (INAVOLISIB), (S)-2-((2-((S)-4-(difluoromethyl)-2-oxooxazolidin-3-yl)-5,6-dihydrobenzo[f]imidazo[1,2-d][1,4]oxazepin-9-yl)amino)propanamide]", "values": [{"measurement": "Light sensitivity (in words)", "setting": "[1]", "result": "degrades under light stress conditions; also recorded: sensitive to light"}, {"measurement": "Selectivity for mutant PI3Kα (in words)", "setting": "[2]", "result": "selective for mutant PI3Kα expressing tumors relative to non-mutant PI3Kα expressing cells; also recorded: selective activity in modulating mutant forms of the PI3Kα (alpha) isoform"}, {"measurement": "Selectivity for PI3Kα isoform (in words)", "setting": "[3]", "result": "selectively inhibits the PI3Kα isoform relative to the PI3 KB, PI3K8, and PI3Ky isoforms"}]}
